In ChEMBL document CHEMBL5303573, “Mapping human microbiome drug metabolism by gut bacteria and their genes” (Nature, 2019):

How the values were obtained:
[1] = The drug is tested on Bifidobacterium longum subsp. Infantis strain: CCUG52486 for biotransformation. The drug concentrations were measured before and after a 12-h incubation by liquid-chromatography-coupled mass spectrometry (LC–MS); conditions: 2 µM
[2] = The drug is tested on Collinsella intestinalis strain: DSM13280 for biotransformation. The drug concentrations were measured before and after a 12-h incubation by liquid-chromatography-coupled mass spectrometry (LC–MS); conditions: 2 µM
[3] = The drug is tested on Alistipes indistinctus strain: DSM22520 for biotransformation. The drug concentrations were measured before and after a 12-h incubation by liquid-chromatography-coupled mass spectrometry (LC–MS); conditions: 2 µM
[4] = The drug is tested on Bacteroides cellulosilyticus strain: DSM14838 for biotransformation. The drug concentrations were measured before and after a 12-h incubation by liquid-chromatography-coupled mass spectrometry (LC–MS); conditions: 2 µM
[5] = The drug is tested on Bacteroides dorei strain: DSM17855 for biotransformation. The drug concentrations were measured before and after a 12-h incubation by liquid-chromatography-coupled mass spectrometry (LC–MS); conditions: phocaeicola dorei, 2 µM
[6] = The drug is tested on Bacteroides fragilis strain: HMW610 for biotransformation. The drug concentrations were measured before and after a 12-h incubation by liquid-chromatography-coupled mass spectrometry (LC–MS); conditions: 2 µM
[7] = The drug is tested on Bacteroides pectinophilus strain: ATCC43243 for biotransformation. The drug concentrations were measured before and after a 12-h incubation by liquid-chromatography-coupled mass spectrometry (LC–MS); conditions: 2 µM
[8] = The drug is tested on Bacteroides sp. WH2 strain: WH2 for biotransformation. The drug concentrations were measured before and after a 12-h incubation by liquid-chromatography-coupled mass spectrometry (LC–MS); conditions: bacteroides sp. wh2, 12 h, 2 µM
[9] = The drug is tested on Anaerotruncus colihominis strain: DSM17241 for biotransformation. The drug concentrations were measured before and after a 12-h incubation by liquid-chromatography-coupled mass spectrometry (LC–MS); conditions: 2 µM
[10] = The drug is tested on Blautia luti strain: DSM14534 for biotransformation. The drug concentrations were measured before and after a 12-h incubation by liquid-chromatography-coupled mass spectrometry (LC–MS); assay type: ADME; design: dose 2 uM, timepoint 0 vs 12 hours; conditions: 2 µM
[11] = The drug is tested on Clostridium sp. strain: fecal isolate for biotransformation. The drug concentrations were measured before and after a 12-h incubation by liquid-chromatography-coupled mass spectrometry (LC–MS); conditions: 2 µM
[12] = The drug is tested on Ruminococcus gnavus strain: ATCC29149 for biotransformation. The drug concentrations were measured before and after a 12-h incubation by liquid-chromatography-coupled mass spectrometry (LC–MS); conditions: mediterraneibacter gnavus, 2 µM
[13] = The drug is tested on Edwardsiella tarda strain: ATCC23685 for biotransformation. The drug concentrations were measured before and after a 12-h incubation by liquid-chromatography-coupled mass spectrometry (LC–MS); conditions: 2 µM
[14] = bacteroides fragilis, 12 h, 2 µM
Description: The drug is tested on Bacteroides fragilis strain: NCTC 9343 for biotransformation. The drug concentrations were measured before and after a 12-h incubation by liquid-chromatography-coupled mass spectrometry (LC–MS)

[15] = bacteroides intestinalis, 12 h, 2 µM
Description: The drug is tested on Bacteroides intestinalis strain: DSM17393 for biotransformation. The drug concentrations were measured before and after a 12-h incubation by liquid-chromatography-coupled mass spectrometry (LC–MS)

[16] = bacteroides thetaiotaomicron, 12 h, 2 µM
Description: The drug is tested on Bacteroides thetaiotaomicron strain: 3731 for biotransformation. The drug concentrations were measured before and after a 12-h incubation by liquid-chromatography-coupled mass spectrometry (LC–MS)

[17] = parabacteroides distasonis, 12 h, 2 µM
Description: The drug is tested on Parabacteroides distasonis strain: ATCC8503 for biotransformation. The drug concentrations were measured before and after a 12-h incubation by liquid-chromatography-coupled mass spectrometry (LC–MS)

[18] = segatella copri, 12 h, 2 µM
Description: The drug is tested on Prevotella copri strain: DSM18205 for biotransformation. The drug concentrations were measured before and after a 12-h incubation by liquid-chromatography-coupled mass spectrometry (LC–MS)

[19] = anaerostipes sp., 12 h, 2 µM
Description: The drug is tested on Anaerostipes sp. strain: fecal isolate for biotransformation. The drug concentrations were measured before and after a 12-h incubation by liquid-chromatography-coupled mass spectrometry (LC–MS)

[20] = The drug is tested on Providencia stuartii strain: ATCC25827 for biotransformation. The drug concentrations were measured before and after a 12-h incubation by liquid-chromatography-coupled mass spectrometry (LC–MS); conditions: 2 µM

Compound: CC(=O)OCC(=O)[C@@]1(OC(C)=O)[C@@H](C)C[C@H]2[C@@H]3C[C@H](F)C4=CC(=O)C=C[C@]4(C)[C@@]3(F)[C@@H](O)C[C@@]21C [DIFLORASONE DIACETATE]
- Bacterial Biotransformation [1]: Compound metabolized
- Bacterial Biotransformation [2]: Compound NOT metabolized
- Bacterial Biotransformation [3]: Compound metabolized
- Bacterial Biotransformation [4]: Compound metabolized
- Bacterial Biotransformation [5]: Compound metabolized
- Bacterial Biotransformation [6]: Compound metabolized
- Bacterial Biotransformation [7]: Compound NOT metabolized
- Bacterial Biotransformation [8]: Compound metabolized
- Bacterial Biotransformation [9]: Compound metabolized
- Bacterial Biotransformation [10]: Compound metabolized
- Bacterial Biotransformation [11]: Compound metabolized
- Bacterial Biotransformation [12]: Compound NOT metabolized
- Bacterial Biotransformation [13]: Compound NOT metabolized
- Bacterial Biotransformation [14]: Compound metabolized
- Bacterial Biotransformation [15]: Compound metabolized
- Bacterial Biotransformation [16]: Compound metabolized
- Bacterial Biotransformation [17]: Compound metabolized
- Bacterial Biotransformation [18]: Compound metabolized
- Bacterial Biotransformation [19]: Compound metabolized

Compound: COc1ccc([C@@H]2Sc3ccccc3N(CCN(C)C)C(=O)[C@@H]2OC(C)=O)cc1 [DILTIAZEM]
- Bacterial Biotransformation [1]: Compound metabolized
- Bacterial Biotransformation [2]: Compound NOT metabolized
- Bacterial Biotransformation [3]: Compound metabolized
- Bacterial Biotransformation [4]: Compound metabolized
- Bacterial Biotransformation [5]: Compound metabolized
- Bacterial Biotransformation [6]: Compound NOT metabolized
- Bacterial Biotransformation [7]: Compound NOT metabolized
- Bacterial Biotransformation [8]: Compound metabolized
- Bacterial Biotransformation [9]: Compound NOT metabolized
- Bacterial Biotransformation [10]: Compound NOT metabolized
- Bacterial Biotransformation [11]: Compound metabolized
- Bacterial Biotransformation [12]: Compound NOT metabolized
- Bacterial Biotransformation [13]: Compound NOT metabolized
- Bacterial Biotransformation [14]: Compound metabolized
- Bacterial Biotransformation [15]: Compound metabolized
- Bacterial Biotransformation [16]: Compound metabolized
- Bacterial Biotransformation [17]: Compound metabolized
- Bacterial Biotransformation [18]: Compound NOT metabolized
- Bacterial Biotransformation [19]: Compound metabolized

Compound: O=c1[nH]c2ccccc2n1CCCN1CCC(n2c(=O)[nH]c3cc(Cl)ccc32)CC1 [DOMPERIDONE]
- Bacterial Biotransformation [1]: Compound NOT metabolized
- Bacterial Biotransformation [2]: Compound NOT metabolized
- Bacterial Biotransformation [3]: Compound NOT metabolized
- Bacterial Biotransformation [4]: Compound NOT metabolized
- Bacterial Biotransformation [5]: Compound NOT metabolized
- Bacterial Biotransformation [6]: Compound NOT metabolized
- Bacterial Biotransformation [7]: Compound NOT metabolized
- Bacterial Biotransformation [8]: Compound NOT metabolized
- Bacterial Biotransformation [9]: Compound NOT metabolized
- Bacterial Biotransformation [10]: Compound NOT metabolized
- Bacterial Biotransformation [11]: Compound NOT metabolized
- Bacterial Biotransformation [12]: Compound NOT metabolized
- Bacterial Biotransformation [13]: Compound NOT metabolized
- Bacterial Biotransformation [14]: Compound NOT metabolized
- Bacterial Biotransformation [15]: Compound NOT metabolized
- Bacterial Biotransformation [16]: Compound NOT metabolized
- Bacterial Biotransformation [17]: Compound NOT metabolized
- Bacterial Biotransformation [18]: Compound NOT metabolized
- Bacterial Biotransformation [19]: Compound NOT metabolized

Compound: CN1CCN(C(=O)O[C@H]2c3nccnc3C(=O)N2c2ccc(Cl)cn2)CC1 [ESZOPICLONE]
- Bacterial Biotransformation [1]: Compound metabolized
- Bacterial Biotransformation [2]: Compound NOT metabolized
- Bacterial Biotransformation [3]: Compound NOT metabolized
- Bacterial Biotransformation [4]: Compound metabolized
- Bacterial Biotransformation [5]: Compound NOT metabolized
- Bacterial Biotransformation [6]: Compound NOT metabolized
- Bacterial Biotransformation [7]: Compound NOT metabolized
- Bacterial Biotransformation [8]: Compound NOT metabolized
- Bacterial Biotransformation [9]: Compound metabolized
- Bacterial Biotransformation [10]: Compound NOT metabolized
- Bacterial Biotransformation [11]: Compound metabolized
- Bacterial Biotransformation [12]: Compound NOT metabolized
- Bacterial Biotransformation [13]: Compound NOT metabolized
- Bacterial Biotransformation [20]: Compound NOT metabolized
- Bacterial Biotransformation [14]: Compound NOT metabolized
- Bacterial Biotransformation [16]: Compound NOT metabolized
- Bacterial Biotransformation [17]: Compound NOT metabolized
- Bacterial Biotransformation [19]: Compound NOT metabolized

Compound: CCN(CC)C(C)CN1c2ccccc2Sc2ccccc21 (stereo unspecified) [ETHOPROPAZINE]
- Bacterial Biotransformation [2]: Compound NOT metabolized
- Bacterial Biotransformation [3]: Compound NOT metabolized
- Bacterial Biotransformation [4]: Compound NOT metabolized
- Bacterial Biotransformation [5]: Compound metabolized
- Bacterial Biotransformation [6]: Compound NOT metabolized
- Bacterial Biotransformation [7]: Compound metabolized
- Bacterial Biotransformation [8]: Compound NOT metabolized
- Bacterial Biotransformation [9]: Compound NOT metabolized
- Bacterial Biotransformation [10]: Compound NOT metabolized
- Bacterial Biotransformation [11]: Compound metabolized
- Bacterial Biotransformation [12]: Compound NOT metabolized
- Bacterial Biotransformation [20]: Compound metabolized
- Bacterial Biotransformation [14]: Compound NOT metabolized
- Bacterial Biotransformation [15]: Compound metabolized
- Bacterial Biotransformation [16]: Compound NOT metabolized
- Bacterial Biotransformation [17]: Compound metabolized
- Bacterial Biotransformation [19]: Compound NOT metabolized

Compound: N#Cc1ccc(C(c2ccc(C#N)cc2)n2cncn2)cc1 [LETROZOLE]
- Bacterial Biotransformation [1]: Compound NOT metabolized
- Bacterial Biotransformation [2]: Compound NOT metabolized
- Bacterial Biotransformation [3]: Compound NOT metabolized
- Bacterial Biotransformation [4]: Compound NOT metabolized
- Bacterial Biotransformation [5]: Compound NOT metabolized
- Bacterial Biotransformation [6]: Compound NOT metabolized
- Bacterial Biotransformation [7]: Compound NOT metabolized
- Bacterial Biotransformation [8]: Compound NOT metabolized
- Bacterial Biotransformation [9]: Compound NOT metabolized
- Bacterial Biotransformation [10]: Compound NOT metabolized
- Bacterial Biotransformation [11]: Compound NOT metabolized
- Bacterial Biotransformation [12]: Compound NOT metabolized
- Bacterial Biotransformation [13]: Compound NOT metabolized
- Bacterial Biotransformation [20]: Compound NOT metabolized
- Bacterial Biotransformation [14]: Compound NOT metabolized
- Bacterial Biotransformation [15]: Compound NOT metabolized
- Bacterial Biotransformation [16]: Compound NOT metabolized
- Bacterial Biotransformation [17]: Compound NOT metabolized
- Bacterial Biotransformation [19]: Compound NOT metabolized

Compound: C#C[C@]1(O)CC[C@H]2[C@@H]3CCC4=CC(=O)CC[C@@H]4[C@H]3CC[C@@]21CC [LEVONORGESTREL]
- Bacterial Biotransformation [2]: Compound NOT metabolized
- Bacterial Biotransformation [3]: Compound NOT metabolized
- Bacterial Biotransformation [4]: Compound metabolized
- Bacterial Biotransformation [5]: Compound metabolized
- Bacterial Biotransformation [6]: Compound metabolized
- Bacterial Biotransformation [7]: Compound NOT metabolized
- Bacterial Biotransformation [8]: Compound metabolized
- Bacterial Biotransformation [9]: Compound NOT metabolized
- Bacterial Biotransformation [10]: Compound NOT metabolized
- Bacterial Biotransformation [11]: Compound metabolized
- Bacterial Biotransformation [12]: Compound metabolized
- Bacterial Biotransformation [13]: Compound NOT metabolized
- Bacterial Biotransformation [20]: Compound NOT metabolized
- Bacterial Biotransformation [14]: Compound metabolized
- Bacterial Biotransformation [15]: Compound NOT metabolized
- Bacterial Biotransformation [16]: Compound metabolized
- Bacterial Biotransformation [17]: Compound metabolized
- Bacterial Biotransformation [18]: Compound NOT metabolized
- Bacterial Biotransformation [19]: Compound NOT metabolized

Compound: CCN(CC)CC#CCOC(=O)C(O)(c1ccccc1)C1CCCCC1.Cl (stereo unspecified) [OXYBUTYNIN CHLORIDE]
- Bacterial Biotransformation [2]: Compound NOT metabolized
- Bacterial Biotransformation [3]: Compound NOT metabolized
- Bacterial Biotransformation [4]: Compound NOT metabolized
- Bacterial Biotransformation [5]: Compound metabolized
- Bacterial Biotransformation [6]: Compound metabolized
- Bacterial Biotransformation [8]: Compound NOT metabolized
- Bacterial Biotransformation [9]: Compound NOT metabolized
- Bacterial Biotransformation [10]: Compound metabolized
- Bacterial Biotransformation [11]: Compound metabolized
- Bacterial Biotransformation [12]: Compound NOT metabolized
- Bacterial Biotransformation [13]: Compound metabolized
- Bacterial Biotransformation [20]: Compound NOT metabolized
- Bacterial Biotransformation [15]: Compound NOT metabolized
- Bacterial Biotransformation [16]: Compound NOT metabolized
- Bacterial Biotransformation [17]: Compound NOT metabolized
- Bacterial Biotransformation [19]: Compound NOT metabolized
